From US20230265116A1, “DEGRADATION OF (EGFR) BY CONJUGATION OF EGFR INHIBITORS WITH E3 LIGASE LIGAND AND METHODS OF USE” (BEIGENE, LTD., priority 2020, published 2023)

Tests used:
[1] = target: T1, EGFR L858R/T790M/C797S (BaF3-LTC cells) (Homo sapiens, UniProt P00533, C797S/L858R/T790M); assay: EGFR degradation HTRF assay, BaF3-LTC cells; format: cell-based; conditions: BaF3-LTC cells; for DC50: EGFR degradation, IC50 (DC50) from curve fit, read-out: DC50(nM) BaF3-LTC; for Dmax: maximum percentage of inhibition (degradation), read-out: Dmax (%) BaF3-LTC
T1 construct: expressed in transfected cells; host or cells: BaF3
T1 sequence (P00533 25-1210 T790M/C797S/L858R): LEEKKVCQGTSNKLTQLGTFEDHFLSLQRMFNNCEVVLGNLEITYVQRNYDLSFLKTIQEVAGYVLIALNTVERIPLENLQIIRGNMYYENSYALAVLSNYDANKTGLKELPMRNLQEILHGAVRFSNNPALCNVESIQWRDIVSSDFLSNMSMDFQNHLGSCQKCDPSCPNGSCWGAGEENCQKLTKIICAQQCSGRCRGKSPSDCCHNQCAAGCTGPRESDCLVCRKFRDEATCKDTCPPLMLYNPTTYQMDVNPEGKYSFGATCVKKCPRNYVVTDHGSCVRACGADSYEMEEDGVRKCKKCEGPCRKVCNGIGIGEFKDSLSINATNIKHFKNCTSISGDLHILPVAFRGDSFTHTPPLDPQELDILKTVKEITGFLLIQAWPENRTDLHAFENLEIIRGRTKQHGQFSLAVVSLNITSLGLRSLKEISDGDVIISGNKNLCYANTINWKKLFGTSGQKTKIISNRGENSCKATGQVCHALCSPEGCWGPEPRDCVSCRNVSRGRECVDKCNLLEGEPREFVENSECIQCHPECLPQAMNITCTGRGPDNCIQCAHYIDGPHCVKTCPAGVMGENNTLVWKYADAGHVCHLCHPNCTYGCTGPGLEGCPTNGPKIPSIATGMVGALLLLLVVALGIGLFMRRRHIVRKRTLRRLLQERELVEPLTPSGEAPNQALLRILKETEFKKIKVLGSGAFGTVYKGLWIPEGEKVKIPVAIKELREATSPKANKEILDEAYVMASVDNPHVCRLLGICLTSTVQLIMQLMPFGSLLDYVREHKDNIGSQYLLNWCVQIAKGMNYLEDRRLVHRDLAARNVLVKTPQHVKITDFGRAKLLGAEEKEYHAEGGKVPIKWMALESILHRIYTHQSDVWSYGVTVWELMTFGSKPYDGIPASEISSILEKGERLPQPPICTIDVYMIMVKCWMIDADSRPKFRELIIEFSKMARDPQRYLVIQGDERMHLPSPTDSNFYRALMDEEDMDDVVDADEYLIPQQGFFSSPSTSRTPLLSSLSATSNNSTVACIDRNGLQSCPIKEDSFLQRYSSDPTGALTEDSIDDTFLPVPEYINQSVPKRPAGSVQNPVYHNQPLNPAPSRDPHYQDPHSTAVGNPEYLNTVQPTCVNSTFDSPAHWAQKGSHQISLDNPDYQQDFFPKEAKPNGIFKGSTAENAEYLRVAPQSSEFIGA
Experimental: (§1) BaF3 WT(wild type), BaF3-LTC(L858R/T790M/C797S) and BaF3-DTC(Del19/T790M/C797S) cells are treated with compounds diluted in 0.2% DMSO cell culture medium and incubate for 16h, 37° C., 5% CO2, H1975-#36, H1975-#28, H1975-#23 and HCC827 cells are treated with compounds diluted in 0.2% DMSO cell culture medium on day 2, incubate for 16h, 37° C., 5% CO2.the final concentriation of compounds in all assay is start with 10 uM, 5-fold dilution, total 8 doses were included.
(§2) After 16h treatment, add HTRF lysis buffer to each well; seal the plate and incubate 1 hour at room temperature on a plate shaker; Once the cells are lysed, 16 μL of cell lysate are transferred to a PE 384-well HTRF detection plate; 4 μL of pre-mixed HTRF antibodies are added to each well; Cover the plate with a plate sealer, spin 1000 rpm for 1 min, Incubate overnight at room temperature; Read on BMG PheraStar with HTRF protocol (337 nm-665 nm-620 nm).
(§3) The inhibition (degradation) percentage of the compound was calculated by the following equation: Inhibition percentage of Compound=100-100×(Signal-low control)/(High control-low control), wherein signal=each test compound group
(§4) High control=Cell group with added DMSO and without compound, indicating microplate readings without EGFR degradation;
(§5) Dmax is the maximum percentage of inhibition (degradation).
(§6) The IC50 (DC50) value of a compound can be obtained by fitting the following equation
(§7) Y=Bottom+(TOP−Bottom)/(1+((IC50/X)^hillslope))
(§8) Wherein, X and Y are known values, and IC50, Hillslope, Top and Bottom are the parameters obtained by fitting with software. Y is the inhibition percentage (calculated from the equation), X is the concentration of the compound; IC50 is the concentration of the compound when the 50% inhibition is reached. The smaller the IC50 value is, the stronger the inhibitory ability of the compound is. Vice versa, the higher the IC50 value is, the weaker the inhibitory ability of the compound is; Hillslope represents the slope of the fitted curve, generally around 1*; Bottom represents the minimum value of the curve obtained by data fitting, which is generally 0%±20%; Top represents the maximum value of the curve obtained by data fitting, which is generally 100%±20%. The experimental data were fitted by calculating and analyzing with Dotmatics data analysis software.

[2] = system: EGFR Del19/T790M/C797S (H1975-clone #28); assay: EGFR degradation HTRF assay, H1975-clone #28 DTC cells; format: cell-based; conditions: H1975 # 28 DTC cells; for DC50: EGFR degradation, IC50 (DC50) from curve fit, read-out: DC50(nM) H1975 # 28 DTC; for Dmax (%) H1975 # 28 DTC: maximum percentage of inhibition (degradation)
Experimental: H1975-clone #28(Del19/T790M/C797S) and H1975-clone #23(Del19/C797S). EGFR-Del19/T790M/C797S and EGFR-Del19/C797S were stably expressed in H1975 cell lines by lentivirus-mediated over-expression, respectively. The EGFR over-expressed cells then underwent gene knockout, in which the EGFR targeting sgRNA was designed to only target the endogenous EGFR copies and preserve the exogenous EGFR copies. Followed by the gene knockout, the edited H1975 cells were seeded in 96 well plates at the concentration of 1 cell/well, cultured for about 2 weeks to allow single clones formation. The formed clones were screened by DNA sequencing and whole exon sequencing analysis for the desired edition. H1975-clone #28 and H1975-clone #23 were finally confirmed as homozygous Del19/T790M/C797S EGFR and Del19/C797S EGFR clones, respectively.
as §1, §2, §3, §4, §5, §6, §7, §8

SMILES | DC50 [1] [nM] | DC50 [2] [nM] | Dmax [1] [%] | Dmax (%) H1975 # 28 DTC [2] [%]
CCc1ccc2c(P(C)(C)=O)c(Nc3nc(Nc4cc(CC)c(N5CCC(N6CCN(CCc7cc(C)cc8c7oc(=O)n8C7CCC(=O)NC7=O)CC6)CC5)cc4OC)ncc3Br)ccc2n1 (centres unmarked) [Example 442, 3-(7-(2-(4-(1-(4-((5-bromo-4-((5-(dimethylphosphoryl)-2-ethylquinolin-6-yl)amino)pyrimidin-2-yl)amino)-2-ethyl-5-methoxyphenyl)piperidin-4-yl)piperazin-1-yl)ethyl)-5-methyl-2-oxobenzo[d]oxazol-3(2H)-yl)piperidine-2,6-dione] | 6.53 | 1.05 | 87 | 81.11
CCc1cc(Nc2ncc(Br)c(Nc3ccc4nc(C)ccc4c3P(C)(C)=O)n2)c(OC)cc1N1CCC(N2CCN(CCOc3cccc4c3n(C)c(=O)n4C3CCC(=O)NC3=O)CC2)CC1 (centres unmarked) [Example 683, 3-(4-(2-(4-(1-(4-((5-bromo-4-((5-(dimethylphosphoryl)-2-methylquinolin-6-yl)amino)pyrimidin-2-yl)amino)-2-ethyl-5-methoxyphenyl)piperidin-4-yl)piperazin-1-yl)ethoxy)-3-methyl-2-oxo-2,3-dihydro-1H-benzo[d]imidazol-1-yl)piperidine-2,6-dione] | 1.11 | 0.595 | 95.9 | 75.35
CCc1cc(Nc2ncc(Br)c(Nc3ccc4nc(C)ncc4c3P(C)(C)=O)n2)c(OC)cc1N1CCC(N2CCN(C(=O)[C@H]3CN(c4cc(F)c([C@H]5CCC(=O)NC5=O)c(F)c4)CC3(C)C)CC2)CC1 [Example 740, (R)-3-(4-((R)-4-(4-(1-(4-((5-bromo-4-((5-(dimethylphosphoryl)-2-methylquinazolin-6-yl)amino)pyrimidin-2-yl)amino)-2-ethyl-5-methoxyphenyl)piperidin-4-yl)piperazine-1-carbonyl)-3,3-dimethylpyrrolidin-1-yl)-2,6-difluorophenyl)piperidine-2,6-dione] | 4.11 | 0.717 |  | 87.27
CCOc1cc(N2CCC(N3CCN(CC4CCN(c5cccc6c5oc(=O)n6C5CCC(=O)NC5=O)CC4)CC3)CC2)c(CC)cc1Nc1ncc(Br)c(Nc2ccc3nc(CC)ccc3c2P(C)(C)=O)n1 (centres unmarked) [Example 581, 3-(7-(4-((4-(1-(4-((5-bromo-4-((5-(dimethylphosphoryl)-2-ethylquinolin-6-yl)amino)pyrimidin-2-yl)amino)-5-ethoxy-2-ethylphenyl)piperidin-4-yl)piperazin-1-yl)methyl)piperidin-1-yl)-2-oxobenzo[d]oxazol-3(2H)-yl)piperidine-2,6-dione] | 6.9 | 1.36 | 88.5 | 72.5
CCOc1cc(N2CCC(N3CCN(C(=O)CN4CCN(c5cc(F)c([C@H]6CCC(=O)NC6=O)c(F)c5)CC4)CC3)CC2)c(CC)cc1Nc1ncc(Br)c(Nc2ccc3c(=O)n(CC)ncc3c2P(C)(C)=O)n1 [Example 639, (R)-3-(4-(4-(2-(4-(1-(4-((5-bromo-4-((5-(dimethylphosphoryl)-2-ethyl-1-oxo-1,2-dihydrophthalazin-6-yl)amino)pyrimidin-2-yl)amino)-5-ethoxy-2-ethylphenyl)piperidin-4-yl)piperazin-1-yl)-2-oxoethyl)piperazin-1-yl)-2,6-difluorophenyl)piperidine-2,6-dione] | 4.06 | 0.71 | 94.3 | 86.93

The remaining compounds from weak to strong by DC50 [1], led by results:

DC50 [1] [nM] | DC50 [2] [nM] | Dmax [1] [%] | SMILES | Dmax (%) H1975 # 28 DTC [2] [%]
18.4 | 1.94 | 87.5 | CCOc1cc(N2CCC(N3CCN(CCc4cc(F)c([C@H]5CCC(=O)NC5=O)c(F)c4)CC3)CC2)c(CC)cc1Nc1ncc(Br)c(Nc2ccc3nc(CC)c(F)cc3c2P(C)(C)=O)n1 [Example 588, (R)-3-(4-(2-(4-(1-(4-((5-bromo-4-((5-(dimethylphosphoryl)-2-ethyl-3-fluoroquinolin-6-yl)amino)pyrimidin-2-yl)amino)-5-ethoxy-2-ethylphenyl)piperidin-4-yl)piperazin-1-yl)ethyl)-2,6-difluorophenyl)piperidine-2,6-dione] | 84.46
9.62 | 2.19 | 94.6 | CCc1cc(Nc2ncc(Br)c(Nc3ccc4nc(C#N)ccc4c3P(C)(C)=O)n2)c(OC)cc1N1CCC(N2CCN(C(=O)[C@@H]3CCN(c4cc(F)c([C@H]5CCC(=O)NC5=O)c(F)c4)C3)CC2)CC1 [Example 674, 6-((5-bromo-2-((4-(4-(4-((R)-1-(4-((R)-2,6-dioxopiperidin-3-yl)-3,5-difluorophenyl)pyrrolidine-3-carbonyl)piperazin-1-yl)piperidin-1-yl)-5-ethyl-2-methoxyphenyl)amino)pyrimidin-4-yl)amino)-5-(dimethylphosphoryl)quinoline-2-carbonitrile] | 69.95
9.43 | 0.759 |  | CCc1cc(Nc2ncc(Br)c(Nc3ccc4nccnc4c3P(C)(C)=O)n2)c(OC)cc1N1CCC(N2CCN(CCc3cc(F)c([C@H]4CCC(=O)NC4=O)c(F)c3)CC2)CC1 [Example 751, (R)-3-(4-(2-(4-(1-(4-((5-bromo-4-((5-(dimethylphosphoryl)quinoxalin-6-yl)amino)pyrimidin-2-yl)amino)-2-ethyl-5-methoxyphenyl)piperidin-4-yl)piperazin-1-yl)ethyl)-2,6-difluorophenyl)piperidine-2,6-dione] | 92.19
6.79 | 0.91 | 95 | CCc1cc(Nc2ncc(Br)c(Nc3ccc4nc(C#N)ccc4c3P(C)(C)=O)n2)c(OC)cc1N1CCC(N2CCN(CCc3cc(F)c([C@H]4CCC(=O)NC4=O)c(F)c3)CC2)CC1 [Example 682, (R)-6-((5-bromo-2-((4-(4-(4-(4-(2,6-dioxopiperidin-3-yl)-3,5-difluorophenethyl)piperazin-1-yl)piperidin-1-yl)-5-ethyl-2-methoxyphenyl)amino)pyrimidin-4-yl)amino)-5-(dimethylphosphoryl)quinoline-2-carbonitrile] | 87.08
6.46 | 2.36 | 92 | CCc1cc(Nc2ncc(Br)c(Nc3cc(F)c4nc(C)ccc4c3P(C)(C)=O)n2)c(OC)cc1N1CCC(N2CCN(C(=O)C3CCN(c4cc(F)c(C5CCC(=O)NC5=O)c(F)c4)CC3)CC2)CC1 (centres unmarked) [Example 512, 3-(4-(4-(4-(1-(4-((5-bromo-4-((5-(dimethylphosphoryl)-8-fluoro-2-methylquinolin-6-yl)amino)pyrimidin-2-yl)amino)-2-ethyl-5-methoxyphenyl)piperidin-4-yl)piperazine-1-carbonyl)piperidin-1-yl)-2,6-difluorophenyl)piperidine-2,6-dione] | 60.54
5.87 | 0.653 |  | CCc1ccc2c(P(C)(C)=O)c(Nc3nc(Nc4cc(CC)c(N5CCC(N6CCN(CCc7cc(F)c([C@H]8CCC(=O)NC8=O)c(F)c7)CC6)CC5)cc4OC)ncc3Cl)ccc2n1 [Example 744, (R)-3-(4-(2-(4-(1-(4-((5-chloro-4-((5-(dimethylphosphoryl)-2-ethylquinolin-6-yl)amino)pyrimidin-2-yl)amino)-2-ethyl-5-methoxyphenyl)piperidin-4-yl)piperazin-1-yl)ethyl)-2,6-difluorophenyl)piperidine-2,6-dione] | 84.24
